Experimental data from ChEMBL document CHEMBL5584358, “Fungal Coculture of Herpotrichia sp. and Trametes versicolor Induces Production of Diverse Metabolites with Anti-Parkinson's Neuroprotective Activity” (J Nat Prod, 2024).

What was measured:
PC-12 [1] = test: Neuroprotective activity against MPP+-induced rat PC12 cell death assessed as increase in cell viability preincubated for 1 hr followed by MPP+ addition and measured after 24 hrs by CCK-8 assay; assay type: functional, cell-based; details: dose 1-20 µM, time 25.0 hrs
PC-12 [2] = test: Neuroprotective activity against MPP+-induced rat PC12 cell death assessed as upregulation of Rab5al1 gene expression at 1 to 10 uM preincubated for 1 hr followed by MPP+ addition and measured after 24 hrs by RNA sequencing analysis relative to control; assay type: functional; details: dose 1-10 µM; time 25 hrs
PC-12 [3] = test: Neuroprotective activity against MPP+-induced rat PC12 cell death assessed as upregulation of Ppial4d gene expression at 1 to 10 uM preincubated for 1 hr followed by MPP+ addition and measured after 24 hrs by RNA sequencing analysis relative to control; assay type: functional; details: dose 1-10 µM; time 25 hrs
PC-12 [4] = test: Neuroprotective activity against MPP+-induced rat PC12 cell death assessed as upregulation of Des gene expression at 1 to 10 uM preincubated for 1 hr followed by MPP+ addition and measured after 24 hrs by RNA sequencing analysis relative to control; assay type: functional; details: dose 1-10 µM; time 25 hrs
PC-12 [5] = test: Neuroprotective activity against MPP+-induced rat PC12 cell death assessed as upregulation of Ets1 gene expression at 1 to 10 uM preincubated for 1 hr followed by MPP+ addition and measured after 24 hrs by RNA sequencing analysis relative to control; assay type: functional; details: dose 1-10 µM; time 25 hrs
PC-12 [6] = test: Neuroprotective activity against MPP+-induced rat PC12 cell death assessed as upregulation of Plau gene expression at 1 to 10 uM preincubated for 1 hr followed by MPP+ addition and measured after 24 hrs by RNA sequencing analysis relative to control; assay type: functional; details: dose 1-10 µM; time 25 hrs
PC-12 [7] = test: Neuroprotective activity against MPP+-induced rat PC12 cell death assessed as upregulation of Dars2 gene expression at 1 to 10 uM preincubated for 1 hr followed by MPP+ addition and measured after 24 hrs by RNA sequencing analysis relative to control; assay type: functional; details: dose 1-10 µM; time 25 hrs
PC-12 [8] = test: Neuroprotective activity against MPP+-induced rat PC12 cell death assessed as upregulation of Rph3a gene expression at 1 to 10 uM preincubated for 1 hr followed by MPP+ addition and measured after 24 hrs by RNA sequencing analysis relative to control; assay type: functional; details: dose 1-10 µM; time 25 hrs
PC-12 [9] = test: Neuroprotective activity against MPP+-induced rat PC12 cell death assessed as upregulation of Tnr gene expression at 1 to 10 uM preincubated for 1 hr followed by MPP+ addition and measured after 24 hrs by RNA sequencing analysis relative to control; assay type: functional; details: dose 1-10 µM; time 25 hrs
PC-12 [10] = test: Neuroprotective activity against MPP+-induced rat PC12 cell death assessed as upregulation of Prkce gene expression at 1 to 10 uM preincubated for 1 hr followed by MPP+ addition and measured after 24 hrs by RNA sequencing analysis relative to control; assay type: functional; details: dose 1-10 µM; time 25 hrs
PC-12 [11] = test: Neuroprotective activity against MPP+-induced rat PC12 cell death assessed as downregulation of F8 gene expression at 1 to 10 uM preincubated for 1 hr followed by MPP+ addition and measured after 24 hrs by RNA sequencing analysis relative to control; assay type: functional; details: dose 1-10 µM; time 25 hrs
PC-12 [12] = test: Neuroprotective activity against MPP+-induced rat PC12 cell death assessed as downregulation of Nlrp1a gene expression at 1 to 10 uM preincubated for 1 hr followed by MPP+ addition and measured after 24 hrs by RNA sequencing analysis relative to control; assay type: functional; details: dose 1-10 µM; time 25 hrs
PC-12 [13] = test: Neuroprotective activity against MPP+-induced rat PC12 cell death assessed as downregulation of Cdk6 gene expression at 1 to 10 uM preincubated for 1 hr followed by MPP+ addition and measured after 24 hrs by RNA sequencing analysis relative to control; assay type: functional; details: dose 1-10 µM; time 25 hrs
PC-12 [14] = test: Neuroprotective activity against MPP+-induced rat PC12 cell death assessed as downregulation of Xiap gene expression at 1 to 10 uM preincubated for 1 hr followed by MPP+ addition and measured after 24 hrs by RNA sequencing analysis relative to control; assay type: functional; details: dose 1-10 µM; time 25 hrs
PC-12 [15] = test: Neuroprotective activity against MPP+-induced rat PC12 cell death assessed as downregulation of Ren gene expression at 1 to 10 uM preincubated for 1 hr followed by MPP+ addition and measured after 24 hrs by RNA sequencing analysis relative to control; assay type: functional; details: dose 1-10 µM; time 25 hrs
PC-12 [16] = test: Neuroprotective activity against MPP+-induced rat PC12 cell death assessed as downregulation of Nr3c2 gene expression at 1 to 10 uM preincubated for 1 hr followed by MPP+ addition and measured after 24 hrs by RNA sequencing analysis relative to control; assay type: functional; details: dose 1-10 µM; time 25 hrs
PC-12 [17] = test: Neuroprotective activity against MPP+-induced rat PC12 cell death assessed as downregulation of Cyp2b1 gene expression at 1 to 10 uM preincubated for 1 hr followed by MPP+ addition and measured after 24 hrs by RNA sequencing analysis relative to control; assay type: functional; details: dose 1-10 µM; time 25 hrs
PC-12 [18] = test: Neuroprotective activity against MPP+-induced rat PC12 cell death assessed as downregulation of Cflar gene expression at 1 to 10 uM preincubated for 1 hr followed by MPP+ addition and measured after 24 hrs by RNA sequencing analysis relative to control; assay type: functional; details: dose 1-10 µM; time 25 hrs
PC-12 [19] = test: Neuroprotective activity against MPP+-induced rat PC12 cell death assessed as downregulation of Vnn1 gene expression at 1 to 10 uM preincubated for 1 hr followed by MPP+ addition and measured after 24 hrs by RNA sequencing analysis relative to control; assay type: functional; details: dose 1-10 µM; time 25 hrs
PC-12 [20] = test: Neuroprotective activity against MPP+-induced rat PC12 cell death assessed as downregulation of Tnfrsf10b gene expression at 1 to 10 uM preincubated for 1 hr followed by MPP+ addition and measured after 24 hrs by RNA sequencing analysis relative to control; assay type: functional; details: dose 1-10 µM; time 25 hrs
PC-12 [21] = test: Neuroprotective activity against MPP+-induced rat PC12 cell death assessed as downregulation of Cntf gene expression at 1 to 10 uM preincubated for 1 hr followed by MPP+ addition and measured after 24 hrs by RNA sequencing analysis relative to control; assay type: functional; details: dose 1-10 µM; time 25 hrs
PC-12 [22] = test: Neuroprotective activity against MPP+-induced rat PC12 cell death assessed as downregulation of Bdnf gene expression at 1 to 10 uM preincubated for 1 hr followed by MPP+ addition and measured after 24 hrs by RNA sequencing analysis relative to control; assay type: functional; details: dose 1-10 µM; time 25 hrs
PC-12 [23] = test: Neuroprotective activity against MPP+-induced rat PC12 cell death assessed as downregulation of Ikbkg gene expression at 1 to 10 uM preincubated for 1 hr followed by MPP+ addition and measured after 24 hrs by RNA sequencing analysis relative to control; assay type: functional; details: dose 1-10 µM; time 25 hrs
PC-12 [24] = test: Neuroprotective activity against MPP+-induced rat PC12 cell death assessed as downregulation of IL33 gene expression at 1 to 10 uM preincubated for 1 hr followed by MPP+ addition and measured after 24 hrs by RNA sequencing analysis relative to control; assay type: functional; details: dose 1-10 µM; time 25 hrs
PC-12 [25] = test: Neuroprotective activity against MPP+-induced rat PC12 cell death assessed as downregulation of Anxa1 gene expression at 1 to 10 uM preincubated for 1 hr followed by MPP+ addition and measured after 24 hrs by RNA sequencing analysis relative to control; assay type: functional; details: dose 1-10 µM; time 25 hrs
PC-12 [26] = test: Neuroprotective activity against MPP+-induced rat PC12 cell death assessed as downregulation of Ifitm3 gene expression at 1 to 10 uM preincubated for 1 hr followed by MPP+ addition and measured after 24 hrs by RNA sequencing analysis relative to control; assay type: functional; details: dose 1-10 µM; time 25 hrs
PC-12 [27] = test: Neuroprotective activity against MPP+-induced rat PC12 cell death assessed as downregulation of Tnfaip8L2 gene expression at 1 to 10 uM preincubated for 1 hr followed by MPP+ addition and measured after 24 hrs by RNA sequencing analysis relative to control; assay type: functional; details: dose 1-10 µM; time 25 hrs

With C=C1CC[C@H]2C(C)(C)[C@@H](O)C[C@@H](O)[C@]2(C)[C@H]1CO the Activity (PC-12 [1]) was “Dose-Dependent Effect”, the log2FC (PC-12 [2]) was >0.4 and the log2FC (PC-12 [3]) was >0.4. The log2FC (PC-12 [4]) was >0.4, the log2FC (PC-12 [5]) was >0.4 and the log2FC (PC-12 [6]) was >0.4. The log2FC (PC-12 [7]) was >0.4, the log2FC (PC-12 [8]) was >0.4 and the log2FC (PC-12 [9]) was >0.4. The log2FC (PC-12 [10]) was >0.4, the log2FC (PC-12 [11]) was >0.4 and the log2FC (PC-12 [12]) was >0.4. For the same compound, the log2FC (PC-12 [13]) was >0.4, the log2FC (PC-12 [14]) was >0.4 and the log2FC (PC-12 [15]) was >0.4. For the same compound, the log2FC (PC-12 [16]) was >0.4, the log2FC (PC-12 [17]) was >0.4 and the log2FC (PC-12 [18]) was >0.4. For the same compound, the log2FC (PC-12 [19]) was >0.4, the log2FC (PC-12 [20]) was >0.4 and the log2FC (PC-12 [21]) was >0.4. The log2FC (PC-12 [22]) was >0.4, the log2FC (PC-12 [23]) was >0.4 and the log2FC (PC-12 [24]) was >0.4. The log2FC (PC-12 [25]) was >0.4, the log2FC (PC-12 [26]) was >0.4 and the log2FC (PC-12 [27]) was >0.4.
